Assay results: patent US20100016335A1, “NOVEL AMINOPYRIDINE DERIVATIVES HAVING AURORA A SELECTIVE INHIBITORY ACTION” (priority 2006, published 2010)
Structures can show the parent of a compound that is named as a salt. Where two headings read alike, the source gives them in different places.

Tests used:
[1] = test system: Human cervical cancer cells (HeLa S3); assay: Cell growth inhibitory effect, WST-8 method; format: cell-based; settings: Homo sapiens, 72 h; HeLa S3, three days incubation; read-out: Cell growth inhibitory effect (HeLaS3) (IC50)
Procedure: Fetal calf serum (FCS) was purchased from Moregate Biotech, and DMEM medium was purchased from Invitrogen Corp. WST-8 was purchased from Kishida Chemical Co., Ltd.
(§1) Human cervical cancer cells (HeLa S3) were obtained from the American Type Culture Collection (ATCC).
Cells were suspended in a DMEM medium containing 10% FCS, and the cell suspension was dispensed to a 96-well plastic plate at a rate of 750 cells/100 microliters per well. The plate was incubated overnight in 5% CO2-95% air at 37° C. A drug was subjected to graded dilution in dimethylsulfoxide and further diluted with a DMEM medium containing 10% FCS. Then, the dilution was dispensed to the plate on which cells had been disseminated in advance, at a rate of 100 microliters per well. The plate was incubated for further three days in 5% CO2-95% air at 37° C. Cell growth after incubation was measured by the WST-8 method (H. Tominaga, et al., Anal. Commun., 36, 47-50 (1999)). Here, the WST-8 method refers to a method in which 20 microliters of a WST-8 reagent solution is added to each well, incubation is conducted at 37° C. for 60 minutes, the plate is stirred, and the amount of formazan produced is measured by a […] method to determine the inhibitory rate of the drug.

[2] = molecular target: T1, GST-tagged human Aurora B(AurB)/His-tagged human INCENP complex proteins (Homo sapiens, UniProt Q96GD4); assay: Aurora B inhibitory activity (Method A, IMAP assay kit); format: biochemical; settings: 40 μM ATP, 25° C., 45 minutes
T1 construct: GST; purchased Carna Biosciences, Inc
Procedure: An assay development kit for IMAP (registered trademark) (Aurora B), purchased from Carna Biosciences, Inc., was used for phosphorylation reaction, and the phosphorylation of a substrate was detected using the IMAP technology. […] Using the same, the phosphorylation reaction was conducted in accordance with a partially revised protocol attached to the kit, and then the phosphorylation of the substrate was detected using the IMAP technology.
For the phosphorylation reaction, 384 well plate was used, and the reaction volume was 10 μl/well. The composition of the reaction buffer (assay buffer) is comprised of 20 mM of HEPES buffer (pH 7.4), 0.01% Tween-20, and 2 mM of dithiothreitol (DTT). Thereto, AurB/INCENP complex protein, 100 nM of the substrate, and 40 μM of ATP, and 1 mM of magnesium salt were added, and then the reaction was conducted at 25° C. for 45 minutes. Thereafter, in order to terminate and detect the reaction, 30 μl of the IMAP (registered trademark) binding reagent (IMAP Progressive Binding Reagent, R7284) that had been diluted (1:400) in the 1× IMAP binding buffer A (IMAP Progressive Binding Buffer A, 5× stock, R7282) was added to each well.
(§2) The compound to be tested was added to the reaction system such that a dilution series of the compound in DMSO was prepared, and then 0.5 μL of this solution was added for the testing to each well. Each control well was provided by adding 0.5 μL of DMSO to the well in place of the DMSO solution containing the compound to be tested.

[3] = test system: Human cervical cancer cells (HeLa S3); assay: Effect by combined use of drugs in cells (docetaxel), WST-8 method; format: cell-based; settings: HeLa S3, three days; for inhibition at 0.3 µM: compound 0.3 μM alone; for inhibition at 1 µM: compound 1.0 μM alone
Procedure: Fetal calf serum (FCS) was purchased from Moregate Biotech, DMEM medium from Invitrogen Corp., docetaxel (tradename: Taxere) from Sigma-Aldrich, Inc., and WST-8 from Kishida Chemical Co., Ltd.
as §1
Cells were suspended in a DMEM medium containing 10% FCS, and the cell suspension was dispensed to two 96-well plastic plates at a rate of 750 cells/100 microliters per well. The plates were incubated overnight in 5% CO2-95% air at 37° C. A drug was subjected to graded dilution in dimethylsulfoxide and further diluted with DMSO or with a DMEM medium containing 10% FCS and also containing 0.6 nM docetaxel. Then, the dilutions were each dispensed to one of the plates on which cells had been disseminated in advance, at a rate of 100 microliters per well. The final concentration of docetaxel at this stage was 0.3 nM. Also, the concentrations in the case of sole administration of the compound according to the invention were 0.003, 0.01, 0.03, 0.1, 0.3, 1, 3 and 10 μM. The plates were incubated for further three days in 5% CO2-95% air at 37° C. Cell growth after incubation was measured by the WST-8 method (H. Tominaga, et al., Anal. Commun., 36, 47-50 (1999)). Here, the WST-8 method refers to a method in which 20 microliters of a WST-8 reagent solution is added to each well, incubation is conducted at 37° C. for 60 minutes, the plate is stirred, and the amount of formazan produced is measured by a colorimetric method to determine the inhibitory rate of the drug. The growth inhibitory effects of docetaxel and of the compound according to the invention were determined, with the value obtained in sole treatment of DMSO being defined as 0%.

human Aurora A = molecular target: T2, human Aurora A (Homo sapiens, UniProt O14965); assay: Aurora A inhibitory activity (IMAP fluorescence polarization phosphorylation assay); format: biochemical; settings: 20 μM ATP, 30° C., 120 minutes
T2 construct: His (N); made in house; host or cells: Escherichia coli BL21-CodonPlus(DE3)-RIL
T2 sequence (O14965 1-403): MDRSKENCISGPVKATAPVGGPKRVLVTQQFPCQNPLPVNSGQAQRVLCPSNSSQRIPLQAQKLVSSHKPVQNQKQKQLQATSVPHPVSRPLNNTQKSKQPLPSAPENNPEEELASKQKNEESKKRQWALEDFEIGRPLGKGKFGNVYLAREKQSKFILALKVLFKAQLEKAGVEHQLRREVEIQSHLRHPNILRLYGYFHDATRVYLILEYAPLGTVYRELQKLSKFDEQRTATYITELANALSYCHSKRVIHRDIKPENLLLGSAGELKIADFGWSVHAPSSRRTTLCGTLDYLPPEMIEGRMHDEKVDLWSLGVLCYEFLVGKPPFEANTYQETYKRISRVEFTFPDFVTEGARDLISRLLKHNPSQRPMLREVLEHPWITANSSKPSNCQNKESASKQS
From the text: cDNA of N-terminal His-tagged human Aurora A was integrated into an expression vector, which was then highly expressed in Escherichia coli BL21-CodonPlus(DE3)-RIL cells. The Escherichia coli was harvested and lysed, and then the His-tagged human Aurora A protein was applied onto a nickel chelate column and eluted from the column with imidazole. The active fractions were desalted with a desalting column to give a purified enzyme.
For the phosphorylation reaction, the method by Upstate, Inc. [Kinase Profiler™ Assay Protocols] was referred to, and phosphorylation of the substrate was detected using IMAP® technology (Molecular Devices, Co. Ltd.) (Gaudet E W. et. al, J. Biomol. Screen, 8, 164-175 (2003)). Concretely, the phosphorylation reaction and the detection were carried out as follows:
The phosphorylation reaction was conducted using 384 well plate, and the reaction volume was 10 μl/well. The reaction buffer is comprised of 50 mM Tris-chloride buffer (pH 7.4), 15 mM magnesium acetate, and 0.2 mM ethylenediamine-N,N,N′,N′-tetraacetic acid (EDTA). Thereto, the purified Aurora A protein, 100 nM of the peptide substrate, and 20 μM of adenosine 5′-triphosphate (ATP) were added, and then the reaction was carried out at 30° C. for 120 minutes.
Thereafter, in order to terminate and detect the reaction, 30 μl of the IMAP (registered trademark) binding reagent (IMAP Progressive Binding Reagent, R7284) that had been diluted (1:400) in the 1×IMAP binding buffer A (IMAP Progressive Binding Buffer A, 5× stock, R7282) was added to each well. The solution stood still for 60 minutes in the dark, and then fluorescence polarization was measured using a high-end microplate reader (excitation wavelength: 485 nm; emission wavelength: 520 nm).
as §2, with “in dimethylsulfoxide (DMSO)” for “in DMSO”

[4] = Homo sapiens, HeLa S3, 72 h, read-out: Cell growth inhibitory effect by sole administration of the compound of Example (%)
[5] = compound 0.3 μM + docetaxel 0.3 nM
[6] = compound 1.0 μM + docetaxel 0.3 nM

T1 sequence (Q96GD4 whole entry): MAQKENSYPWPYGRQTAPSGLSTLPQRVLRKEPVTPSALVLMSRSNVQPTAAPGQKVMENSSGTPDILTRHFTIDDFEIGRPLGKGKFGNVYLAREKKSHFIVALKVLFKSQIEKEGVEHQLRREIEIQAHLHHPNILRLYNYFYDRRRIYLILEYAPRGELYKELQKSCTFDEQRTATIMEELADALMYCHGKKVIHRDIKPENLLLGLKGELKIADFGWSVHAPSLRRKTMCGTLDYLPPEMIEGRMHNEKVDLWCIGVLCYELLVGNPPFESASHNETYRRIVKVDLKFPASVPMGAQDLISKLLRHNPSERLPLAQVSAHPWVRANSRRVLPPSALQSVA
T1 sequence (Q9NQS7 803-916 partner limits assumed): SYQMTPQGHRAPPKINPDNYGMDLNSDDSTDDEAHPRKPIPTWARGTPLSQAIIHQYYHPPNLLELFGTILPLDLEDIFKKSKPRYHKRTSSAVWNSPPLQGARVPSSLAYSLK

Compound	IC50 [1]	IC50 [2]	Cell growth inhibitory effect by combined administration of docetaxel and the compound of Example (%) [3, 5]	IC50 (human Aurora A)	further results
Cl.O=C(O)[C@]1(Cc2cccc(Nc3nccs3)n2)CC[C@@H](Oc2cccc(F)c2F)CC1 [Example 3, trans-4-(2,3-difluorophenoxy)-1-((6-(1,3-thiazol-2-ylamino)pyridin-2-yl)methyl)cyclohexanecarboxylic acid hydrochloride]	3950 nM	59 nM	74.1%	0.12 nM	inhibition at 0.3 µM [3, 4]: 5.4%; inhibition at 1 µM [3, 4]: 26.9%; Cell growth inhibitory effect by combined administration of docetaxel and the compound of Example (%) [3, 6]: 90.4%
Fc1c(Cl)cccc1O[C@H]1CC[C@](Cc2cccc(Nc3cc[nH]n3)n2)(c2n[nH]c(=S)o2)CC1 [Example 24, 5-(trans-4-(3-chloro-2-fluorophenoxy)-1-((6-(1H-pyrazol-3-ylamino)pyridin-2-yl)methyl)cyclohexyl)-1,3,4-oxadiazole-2(3H)-thione]	1150 nM	130 nM	87.8%	0.12 nM	inhibition at 0.1 µM ([3]; Homo sapiens, HeLa S3, 72 h, compound 0.1 μM alone, read-out: Cell growth inhibitory effect by sole administration of the compound of Example (%)): 0.5%; inhibition at 0.3 µM [3, 4]: 25.4%; Cell growth inhibitory effect by combined administration of docetaxel and the compound of Example (%) ([3]; compound 0.1 μM + docetaxel 0.3 nM): 72.8%
Cl.O=C(O)[C@]1(Cc2cccc(Nc3nccs3)n2)CC[C@@H](Oc2cccc(Cl)c2F)CC1 [Example 1, trans-4-(3-chloro-2-fluorophenoxy)-1-((6-(1,3-thiazol-2-ylamino)pyridin-2-yl)methyl)cyclohexanecarboxylic acid hydrochloride]	1970 nM		84.7%		inhibition at 0.3 µM ([3]; Homo sapiens, 72 h, read-out: Cell growth inhibitory effect by sole administration of the compound of Example (%)): 4.4%
O=C(O)[C@]1(Cc2cccc(Nc3cc[nH]n3)n2)CC[C@@H](Oc2cccc(C(F)(F)F)c2F)CC1 [Example 9, trans-4-(2-fluoro-3-(trifluoromethyl)phenoxy)-1-((6-(1H-pyrazol-3-ylamino)pyridin-2-yl)methyl)cyclohexanecarboxylic acid trifluoroacetate]	2210 nM	190 nM		0.16 nM	inhibition at 1 µM [3, 4]: 37.1%; inhibition at 3 µM ([3]; Homo sapiens, HeLa S3, 72 h, compound 3.0 μM alone, read-out: Cell growth inhibitory effect by sole administration of the compound of Example (%)): 59%; Cell growth inhibitory effect by combined administration of docetaxel and the compound of Example (%) [3, 6]: 91.8%; Cell growth inhibitory effect by combined administration of docetaxel and the compound of Example (%) ([3]; compound 3.0 μM + docetaxel 0.3 nM): 95.0%
Fc1c(O[C@H]2CC[C@](Cc3cccc(Nc4cc[nH]n4)n3)(c3nnco3)CC2)cccc1C(F)(F)F [Example 22, 6-((trans-4-(2-fluoro-3-(trifluoromethyl)phenoxy)-1-(1,3,4-oxadiazol-2-yl)cyclohexyl)methyl)-N-1H-pyrazol-3-ylpyridin-2-amine]		> 1000 nM		4.1 nM	
Cc1nnc([C@]2(Cc3cccc(Nc4cc[nH]n4)n3)CC[C@@H](Oc3cccc(Cl)c3F)CC2)o1 [Example 25, 6-((trans-4-(3-chloro-2-fluorophenoxy)-1-(5-methyl-1,3,4-oxadiazol-2-yl)cyclohexyl)methyl)-N-1H-pyrazol-3-ylpyridin-2-amine]		690 nM		0.87 nM	
CN(C)C(=O)[C@]1(Cc2cccc(Nc3cc[nH]n3)n2)CC[C@@H](Oc2cccc(Cl)c2F)CC1 [Example 13, trans-4-(3-chloro-2-fluorophenoxy)-N,N-dimethyl-1-((6-(1H-pyrazol-3-ylamino)pyridin-2-yl)methyl)cyclohexanecarboxamide]		> 1000 nM		1.3 nM	
O=C(O)[C@]1(Cc2cc(Br)cc(Nc3nccs3)n2)CC[C@@H](Oc2cccc(Cl)c2F)CC1 [Example 40, trans-1-((4-bromo-6-(1,3-thiazol-2-ylamino)pyridin-2-yl)methyl)-4-(3-chloro-2-fluorophenoxy)cyclohexanecarboxylic acid hydrochloride]		95 nM		0.09 nM	
